Test results from patent US20240217951A1, “PCSK9 INHIBITORS AND METHODS OF USE THEREOF” (AstraZeneca AB, priority 2022, published 2024).

Columns and labels:
[1] = molecular target: T1, potassium ion channel hERG (human Ether-á-go-go-Related Gene) (Homo sapiens, UniProt Q12809); test: Assay 5 - hERG assay (SyncroPatch 384PE patch clamp, CHO cells); assay type: cell-based; details: geometric mean; CHO cells over-expressing hERG; read-out: Assay 5 (hERG Hu CHO IF EPh CR-Syncro) GMean IC50
T1 construct: expressed in transfected cells; host or cells: Chinese hamster ovary K1 (CHO)
T1 sequence (Q12809 whole entry): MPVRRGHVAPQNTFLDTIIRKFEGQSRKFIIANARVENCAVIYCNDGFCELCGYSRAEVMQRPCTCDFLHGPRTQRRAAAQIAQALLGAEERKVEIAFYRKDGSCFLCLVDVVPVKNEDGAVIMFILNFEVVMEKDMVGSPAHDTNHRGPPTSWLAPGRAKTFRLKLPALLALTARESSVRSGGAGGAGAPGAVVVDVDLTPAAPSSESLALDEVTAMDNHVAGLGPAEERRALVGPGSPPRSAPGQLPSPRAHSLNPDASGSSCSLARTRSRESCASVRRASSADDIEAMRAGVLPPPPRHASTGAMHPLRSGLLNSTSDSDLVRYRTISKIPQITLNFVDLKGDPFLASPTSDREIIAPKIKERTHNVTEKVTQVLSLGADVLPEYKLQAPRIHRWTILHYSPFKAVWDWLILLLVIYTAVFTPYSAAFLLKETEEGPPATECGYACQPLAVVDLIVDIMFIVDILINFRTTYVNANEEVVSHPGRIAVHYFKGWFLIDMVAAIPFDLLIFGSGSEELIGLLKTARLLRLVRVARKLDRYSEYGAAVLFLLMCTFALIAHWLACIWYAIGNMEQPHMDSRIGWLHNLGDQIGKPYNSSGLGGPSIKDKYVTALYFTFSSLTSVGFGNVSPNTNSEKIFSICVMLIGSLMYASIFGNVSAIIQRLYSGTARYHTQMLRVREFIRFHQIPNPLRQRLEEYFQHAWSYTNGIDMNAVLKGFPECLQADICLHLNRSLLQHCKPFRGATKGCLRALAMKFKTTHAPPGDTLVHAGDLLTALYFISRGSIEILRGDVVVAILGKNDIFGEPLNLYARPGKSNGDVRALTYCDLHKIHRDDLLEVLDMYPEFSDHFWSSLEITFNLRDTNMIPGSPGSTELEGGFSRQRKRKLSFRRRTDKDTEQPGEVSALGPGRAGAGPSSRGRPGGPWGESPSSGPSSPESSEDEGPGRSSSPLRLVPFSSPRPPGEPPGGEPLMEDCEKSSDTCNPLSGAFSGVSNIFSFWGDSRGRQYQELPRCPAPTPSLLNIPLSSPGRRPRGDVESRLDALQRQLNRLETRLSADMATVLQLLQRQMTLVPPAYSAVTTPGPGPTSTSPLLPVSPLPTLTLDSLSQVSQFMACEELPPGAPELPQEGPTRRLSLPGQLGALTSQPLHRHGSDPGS
Method in brief: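 Automated high-throughput patch clamp on CHO-K1 cells overexpressing hERG at room temperature, KF/KCl internal with escin, NMDG-containing external at pH 7.4. Six-point cumulative compound addition, 0.33% DMSO final; wells kept only with seal >30 MΩ, Z′ >0.4 and current >0.2 nA.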

[2] = molecular target: GSK3β (Glycogen synthase kinase-3 beta) (Homo sapiens, UniProt P49841); test: Assay 6 - GSK3β assay (ThermoFisher Z-Lyte); assay type: biochemical; details: geometric mean; ATP Conc: 10 μM; read-out: Assay 6 (GSK3β FRET-Z-Lyte CR) GMean IC50 (μM) ATP Conc: 10
Chain of GSK3β (Glycogen synthase kinase-3 beta) (P49841 whole entry): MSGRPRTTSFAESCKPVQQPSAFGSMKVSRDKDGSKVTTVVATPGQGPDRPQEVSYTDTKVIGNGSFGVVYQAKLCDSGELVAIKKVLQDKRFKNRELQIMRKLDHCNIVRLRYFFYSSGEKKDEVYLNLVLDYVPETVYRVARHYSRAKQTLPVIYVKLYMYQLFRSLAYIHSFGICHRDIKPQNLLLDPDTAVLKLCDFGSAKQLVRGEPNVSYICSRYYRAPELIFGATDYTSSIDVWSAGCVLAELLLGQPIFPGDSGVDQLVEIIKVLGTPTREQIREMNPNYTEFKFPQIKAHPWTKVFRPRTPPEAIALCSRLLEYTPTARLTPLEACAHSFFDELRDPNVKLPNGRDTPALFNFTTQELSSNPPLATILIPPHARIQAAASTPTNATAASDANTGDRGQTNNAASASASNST
Method in brief: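 Z-Lyte fluorescence kinase assay with 0.22-0.92 ng GSK3β and 2 μM Ser/Thr 09 peptide in 50 mM HEPES pH 7.5, 10 mM MgCl2, 1 mM EGTA, 0.01% BRIJ-35. Kinase reaction 60 min at room temperature, then 60 min development. 10-point 3-fold titration from 10 μM in 1% DMSO, fitted to a sigmoidal dose-response curve.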

PCSK9 [3] = molecular target: T2, PCSK9 (Homo sapiens, UniProt Q8NBP7, G670E/V474I); test: biochemical
T2 sequence (Q8NBP7 with tags, fused parts or gaps V474I/G670E): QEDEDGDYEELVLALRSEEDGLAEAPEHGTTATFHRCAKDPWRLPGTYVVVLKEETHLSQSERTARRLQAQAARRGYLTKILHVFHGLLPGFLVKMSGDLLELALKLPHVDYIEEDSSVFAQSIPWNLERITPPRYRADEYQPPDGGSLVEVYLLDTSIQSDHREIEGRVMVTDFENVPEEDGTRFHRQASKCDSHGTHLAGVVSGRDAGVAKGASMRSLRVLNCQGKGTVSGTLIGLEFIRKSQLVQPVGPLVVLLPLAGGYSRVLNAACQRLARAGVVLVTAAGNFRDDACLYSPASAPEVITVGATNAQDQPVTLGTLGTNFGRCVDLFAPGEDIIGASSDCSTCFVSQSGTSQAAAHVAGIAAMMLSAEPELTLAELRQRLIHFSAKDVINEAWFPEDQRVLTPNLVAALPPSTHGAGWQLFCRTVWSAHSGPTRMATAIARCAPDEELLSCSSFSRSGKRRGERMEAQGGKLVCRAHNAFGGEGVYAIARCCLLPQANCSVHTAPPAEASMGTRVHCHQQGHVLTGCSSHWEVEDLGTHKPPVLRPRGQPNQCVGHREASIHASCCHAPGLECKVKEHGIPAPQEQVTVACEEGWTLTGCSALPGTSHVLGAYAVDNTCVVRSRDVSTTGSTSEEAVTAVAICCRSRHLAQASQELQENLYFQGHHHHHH

PCSK9 [4] = molecular target: T2, PCSK9; test: Assay 3 - PCSK9 LDL-C uptake assay in HepG2 cells; assay type: cell-based; parameters: TEV cleavage site (C); His6 (C); host or cells: added to HepG2 cells (ATCC #HB-8065); details: 125 nM PCSK9, pHrodo Red-LDL, read-out: Assay 3 LDL uptake potency
From the text: Assay 3—PCSK9 LDL-C Uptake Assay
This assay measures for PCSK9 antagonist activity based on a test compound's capacity to restore LDL-C-uptake in HepG2 cells. The assay is based on exogenous PCSK9 and LDL-C complexed with a pH-sensitive dye. Outside the cells, at neutral pH, the pHrodo Red-LDL is dimly fluorescent but upon LDLR mediated endocytosis it fluoresces brightly. PCSK9 traffics the LDLR to intracellular degradation and reduces uptake of LDL-C. Inhibition of PCSK9 reduces LDLR degradation and the increased LDL-C uptake is quantified by fluorescence microscopy.
Preparation of Assay Reagents
Cell medium: MEM supplemented with 10% FBS, 1×NEAA and Sodium Pyruvate Assay medium: OptiMem supplemented with penicillin/streptomycin
Cells: HepG2 (ATCC #HB-8065)
Step by Step Protocol for Running the Assay:
• 1. Cryopreserved HepG2 cells were thawed in assay medium and centrifuged for 5 min at 250 g. Supernatant was discarded and the cell pellet resuspended in cell medium and counted with a Nucleocounter. Cells were again centrifuged 5 min at 250 g and the pellet was resuspended to 500000 cells/mL in assay medium. • 2. 20 μL of above cell mix was dispensed into black pclear TC treated 384 well plates with Multidrop Combi and left at room temperature for 20 minutes. • 3. Plates were incubated at 37° C., 5% CO2 for 24 h
• 1. Test compounds were prepared in concentration response in DMSO with a half-log dilution factor in DMSO in Echo 384 LDV plates starting at 10 mM. • 2. 30 nL of above test compounds were dispensed with Echo 655 to cells for a top concentration of 10 μM • 3. 10 μL PCSK9 in assay medium was dispensed to cells with Multidrop Combi for 125 nM final concentration in the wells. • 4. Plates were incubated at 37° C., 5% CO2 for 24 h
• 1. 10 μL pHrodo Red-LDL in assay medium was dispensed to cells with Multidrop Combi for 6 μg/mL • 2. Plates were incubated at 37° C., 5% CO2 and imaged with the Incucyte S3 after 4 h and 24 h
Image data was processed using Incucyte 2021, a software to identify cells and red fluorescent intensity. Screener was used to further process data. Data was normalized as % effect of the signal between median values of the on-plate controls of DMSO and 100 nM Evolocumab according to the formula % effect=−100*(x−DMSO)/(Evolocumab−DMSO) where x equals the measured signal. Concentration response data of the normalized values were fitted using a four-parameter logistic fit.

Row | SMILES | IC50 [1] [nM] | IC50 [2] [µM] | IC50 (PCSK9 [3]) [nM] | EC50 (PCSK9 [4]) [nM]
1 | O=c1ccc2cccnc2n1-c1ccc(N[C@H]2CC[C@H](Nc3cnc(Cl)cn3)C2)nc1 [Example 34, 1-(6-(((1S,3S)-3-((5-Chloropyrazin-2-yl)amino)cyclopentyl)amino)pyridin-3-yl)-1,8-naphthyridin-2 (1H)-one] | 15400 | > 10 | 5.1 | 100
2 | Cc1cnc(N[C@H]2CC[C@H](Nc3ccc(-n4c(=O)ccc5ccccc54)cn3)C2)cn1 [Example 38, 1-(6-(((1S,3S)-3-((5-Methylpyrazin-2-yl)amino)cyclopentyl)amino)pyridin-3-yl)quinolin-2(1H)-one] | 25100 | > 10 | 2.2 | 100
3 | Cc1cnc(N[C@H]2CC[C@H](Nc3ccc(-n4cc(Cl)ccc4=O)cn3)C2)cn1 [Example 43, 5-Chloro-6′-(((1S,3S)-3-((5-methylpyrazin-2-yl)amino)cyclopentyl)amino)-2H-[1,3′-bipyridin]-2-one] | > 40000 | > 10 | 22 | 700
4 | Cc1cccn(-c2ccc(N[C@H]3CC[C@H](Nc4cnc(OC(F)F)cn4)C3)nc2)c1=O [Example 84, 6′-(((1S,3S)-3-((5-(Difluoromethoxy)pyrazin-2-yl)amino)cyclopentyl)amino)-3-methyl-2H-[1,3′-bipyridin]-2-one] | 6900 | > 10 | 11 | 700
5 | O=c1c(Cl)cccn1-c1ccc(N[C@H]2CC[C@H](Nc3cnc(OC(F)F)cn3)C2)nc1 [Example 85, 3-Chloro-6′-(((1S,3S)-3-((5-(difluoromethoxy)pyrazin-2-yl)amino)cyclopentyl)amino)-2H-[1,3′-bipyridin]-2-one] | 5600 | > 10 | 4.3 | 200
6 | O=c1ccc2cccnc2n1-c1ccc(N[C@H]2CC[C@H](Nc3cnc(OC(F)F)cn3)C2)nc1 [Example 87, 1-(6-(((1S,3S)-3-((5-(Difluoromethoxy)pyrazin-2-yl)amino)cyclopentyl)amino)pyridin-3-yl)-1,8-naphthyridin-2 (1H)-one] | 18100 | > 10 | 9.2 | 100
7 | O=c1ccc2ccccc2n1-c1ccc(N[C@H]2CC[C@H](Nc3cnc(OC(F)F)cn3)C2)nc1 [Example 88, 1-(6-(((1S,3S)-3-((5-(Difluoromethoxy)pyrazin-2-yl)amino)cyclopentyl)amino)pyridin-3-yl)quinolin-2 (1H)-one] | 4500 | > 10 | 4.5 | 200
8 | Cn1c(=O)n(-c2ccc(N[C@H]3CC[C@H](Nc4cnc(OC(F)F)cn4)C3)nc2)c2ncccc21 [Example 96, 3-(6-(((1S,3S)-3-((5-(Difluoromethoxy)pyrazin-2-yl)amino)cyclopentyl)amino)pyridin-3-yl)-1-methyl-1,3-dihydro-2H-imidazo[4,5-b]pyridin-2-one] | 12200 | > 10 | 7.3 | 700
9 | Cn1c(=O)n(-c2ccc(N[C@H]3CC[C@H](Nc4cnc(Cl)cn4)C3)nc2)c2ncccc21 [Example 98, 3-(6-(((1S,3S)-3-((5-Chloropyrazin-2-yl)amino)cyclopentyl)amino)pyridin-3-yl)-1-methyl-1,3-dihydro-2H-imidazo[4,5-b]pyridin-2-one] | 10800 | > 10 | 4.2 | 800
10 | N#Cc1cccn(-c2ccc(N[C@H]3CC[C@H](Nc4cnc(Cl)cn4)C3)nc2)c1=O [Example 101, 6′-(((1S,3S)-3-((5-Chloropyrazin-2-yl)amino)cyclopentyl)amino)-2-oxo-2H-[1,3′-bipyridine]-3-carbonitrile] | 19400 | > 10 | 5.5 | 600
11 | N#Cc1cccn(-c2ccc(N[C@H]3CC[C@H](Nc4cnc(C5CC5)cn4)C3)nc2)c1=O [Example 104, 6′-(((1S,3S)-3-((5-Cyclopropylpyrazin-2-yl)amino)cyclopentyl)amino)-2-oxo-2H-[1,3′-bipyridine]-3-carbonitrile] | 24200 | > 10 | 5.8 | 500
12 | Cn1c(=O)n(-c2ccc(N[C@H]3CC[C@H](Nc4cnc(C5CC5)cn4)C3)nc2)c2ncccc21 [Example 105, 3-(6-(((1S,3S)-3-((5-Cyclopropylpyrazin-2-yl)amino)cyclopentyl)amino)pyridin-3-yl)-1-methyl-1,3-dihydro-2H-imidazo[4,5-b]pyridin-2-one] | 20400 | > 10 | 6.4 | 800
13 | O=c1c(Cl)cccn1-c1ccc(N[C@H]2CC[C@H](Nc3cnc(C4CC4)cn3)C2)nc1 [Example 108, 3-Chloro-6′-(((1S,3S)-3-((5-Cyclopropylpyrazin-2-yl)amino)cyclopentyl)amino)-2H-[1,3′-bipyridin]-2-one] | 12700 | > 10 | 3.4 | 400
14 | Cc1cnc(N[C@H]2CC[C@H](Nc3ccc(-n4cccc(C(F)(F)F)c4=O)cn3)C2)cn1 [Example 147, 6′-(((1S,3S)-3-((5-Methylpyrazin-2-yl)amino)cyclopentyl)amino)-3-(trifluoromethyl)-2H-[1,3′-bipyridin]-2-one] | 16600 | > 10 | 5.2 | 100
15 | Cc1cnc(N[C@H]2CC[C@H](Nc3ccc(-n4cccc(OC(F)(F)F)c4=O)cn3)C2)cn1 [Example 148, 6′-(((1S,3S)-3-((5-Methylpyrazin-2-yl)amino)cyclopentyl)amino)-3-(trifluoromethoxy)-2H-[1,3′-bipyridin]-2-one] | > 40100 | > 10 | 8 | 200
16 | Cc1ncc(N[C@H]2CC[C@H](Nc3ccc(-n4cc(-c5nnn[nH]5)ccc4=O)cn3)C2)nc1C [Example 176, 6′-(((1S,3S)-3-((5,6-Dimethylpyrazin-2-yl)amino)cyclopentyl)amino)-5-(1H-tetrazol-5-yl)-2H-[1,3′-bipyridin]-2-one] | > 40100 | > 10 | 12 | 100
17 | Cc1cnc(N[C@H]2CC[C@H](Nc3ccc(-n4cc(-c5nnn[nH]5)ccc4=O)cn3)C2)cn1 [Example 177, 6′-(((1S,3S)-3-((5-Methylpyrazin-2-yl)amino)cyclopentyl)amino)-5-(1H-tetrazol-5-yl)-2H-[1,3′-bipyridin]-2-one] | > 40100 | > 10 | 5.4 | 200
18 | O=c1ccc(-c2nnn[nH]2)cn1-c1ccc(N[C@H]2CC[C@H](Nc3cnc(OC(F)F)cn3)C2)nc1 [Example 178, 6′-(((1S,3S)-3-((5-(Difluoromethoxy)pyrazin-2-yl)amino)cyclopentyl)amino)-5-(1H-tetrazol-5-yl)-2H-[1,3′-bipyridin]-2-one] | > 40100 | > 10 | 10 | 100
19 | Cc1cnc(N[C@H]2CC[C@H](Nc3ccc(-n4cccc(-c5cn[nH]c5)c4=O)cn3)C2)cn1 [Example 204, 6′-(((1S,3S)-3-((5-Methylpyrazin-2-yl)amino)cyclopentyl)amino)-3-(1H-pyrazol-4-yl)-2H-[1,3′-bipyridin]-2-one] | > 40100 | > 10 | 3.5 | 400
